According to US20240254157A1, “MACROLIDE COMPOUNDS” (VANDERBILT UNIVERSITY, priority 2021, published 2024):
Where two headings read alike, the source gives them in different places.

What was measured:
[1] = test system: primary AML patient samples; assay: Cell viability GI50 against primary AML patient samples (CellTiter-Glo); assay type: cell-based
Method: Compounds were diluted in DMSO (<0.05% DMSO) and dispensed into a 384-well plate using the Echo 555 liquid handler (Labcyte). Following the addition of compounds, cells were pipetted into the 384-well plates at a concentration of between 2,000 and 8,000 cells per well in IMDM or RPMI media, as noted above, supplemented with 10% FBS and incubated at 37° C., 5% CO2 in a tissue culture incubator. Plates were incubated for 48 hours, and cell viability was measured using the CellTiter-Glo reagent (Promega). Percent viability was defined as relative luminescence units (RLU) of each well divided by the RLU of cells in DMSO control. Dose-response curves and GI50 values were determined using linear regression of double-log transformed data (GraphPad Prism version 6.0 h). Control bone marrow-derived CD34+ cells were purchased from STEMCELL Technologies.

[2] = test system: MV-4-11 cell line derived xenograft; assay: MV-4-11 cell line derived xenograft model; assay type: in vivo
[3] = test system: E1A oncogene transformed cell lines; settings: cited from earlier work
untransformed lines = settings: cited from earlier work
[4] = test system: NCI-60 cell lines that do not exhibit the Warburg effect; settings: cited from earlier work

SMILES	GI50 ([1]; patient sample 17-03-006, data collected Jul. 8, 2021, read-out: GI50 from double log regression (converted)) [nM]	GI50 ([1]; patient sample 17-03-006, data collected Jul. 8, 2021, read-out: viability GI50 from Prism) [nM]	GI50 ([1]; patient sample 17-03-006, data collected Mar. 8, 2022, read-out: GI50 from double log regression (converted)) [nM]	GI50 ([1]; patient sample 17-03-006, data collected Mar. 8, 2022, read-out: viability GI50 from Prism) [nM]	GI50 ([1]; patient sample 18-12-001, data collected Jul. 8, 2021, read-out: GI50 from double log regression (converted)) [nM]	GI50 ([1]; patient sample 18-12-001, data collected Jul. 8, 2021, read-out: viability GI50 from Prism) [nM]	GI50 ([1]; patient sample 18-12-001, data collected Mar. 8, 2022, read-out: GI50 from double log regression (converted)) [nM]	GI50 ([1]; patient sample 29-09-002, data collected Jul. 8, 2021, read-out: GI50 from double log regression (converted)) [nM]	GI50 ([1]; patient sample 29-09-002, data collected Jul. 8, 2021, read-out: viability GI50 from Prism) [nM]	efficacy in xenograft model [2]	potency against transformed cells ([3]; transformed cells) [nM]	fold more potent against transformed cells than untransformed lines ([3]; transformed vs untransformed)	potency against untransformed lines (untransformed lines) [nM]	activity in NCI-60 cell lines relying on oxidative phosphorylation [4]
COCCC[C@H]1O[C@@](O)([C@H](C)[C@@H]2C[C@H](OC)[C@H](O)\C=C(C)/C=C(C)\C=C(\C)[C@@H](O[C@@H]3O[C@@H](C)[C@H](O)[C@@H](O)[C@@H]3O)[C@H](C)\C=C(C)/C=C(OC)\C=C(\C)C(=O)O2)[C@H](OC)[C@@H](O)[C@]1(C)O[C@H]1C[C@H](O)[C@H](O[C@H]2C[C@@](C)(O)[C@H](O)[C@@H](C)O2)[C@@H](C)O1 [ammocidin A]	32.1	10.3	30.8	9.5	31.2	30.2	75.4	21.7	15.8	comparable efficacy	–	–	–	–
COC[C@@H](C[C@H]1O[C@@](O)([C@H](O)[C@@H]2C[C@H](OC)[C@@H](O)CC/C=C(C)/C=C/[C@@H](O[C@@H]3O[C@@H](C)[C@H](OC)[C@@H](O)[C@@H]3O)[C@H](C)/C=C(C)/C=C(C)/C=C(\C)C(=O)O2)[C@H](C)[C@@H](O)[C@H]1C)OC1C[C@](C)(O)[C@@H](O[C@H]2C[C@@H](OC)[C@H](O)[C@@H](C)O2)[C@H](C)O1 (some centres unmarked) [apoptolidin, Apoptolidin A]	–	–	–	–	–	–	–	–	–	–	10	1,000 fold	10000	low nanomolar
